Measured values reported in PMC6435698, “Keggin-type polyoxotungstates as mushroom tyrosinase inhibitors - A speciation study” (Scientific Reports, 2019).
Where two headings read alike, the source gives them in different places.

Assays:
[1] = biological target: T1, abPPO4 (mushroom tyrosinase) (Agaricus bisporus, UniProt C7FF05); assay: dopachrome assay, inhibition of abPPO4 diphenolase activity; type: biochemical; details: for α, inhibition parameter, from Lineweaver-Burk intercepts: [b] from Lineweaver-Burk intercepts; for inhibitory effect on abPPO4 activity (in words): activity plots; for Inhibition type: substrate L-DOPA; on Ki [mM], from Dixon plots: L-DOPA 0.4–1.5 mM; on Ki [mM], from Lineweaver-Burk slopes: L-DOPA 0.4–1.5 mM
T1 construct: glutathione-S-transferase (GST) (N, cleaved yes); made in house; host or cells: E. coli BL21(DE3)
T1 sequence (C7FF05 1-379 limits assumed): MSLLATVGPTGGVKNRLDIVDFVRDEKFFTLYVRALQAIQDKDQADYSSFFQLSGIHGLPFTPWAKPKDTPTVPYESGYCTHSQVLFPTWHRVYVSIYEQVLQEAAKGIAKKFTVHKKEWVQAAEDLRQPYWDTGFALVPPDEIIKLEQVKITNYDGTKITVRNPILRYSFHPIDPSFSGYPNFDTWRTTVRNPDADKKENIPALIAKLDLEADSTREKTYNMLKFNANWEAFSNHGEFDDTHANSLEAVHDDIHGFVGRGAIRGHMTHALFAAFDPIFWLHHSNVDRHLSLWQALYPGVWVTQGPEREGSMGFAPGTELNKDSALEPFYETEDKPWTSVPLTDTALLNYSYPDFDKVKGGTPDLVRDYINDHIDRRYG
Protocol: The detailed methodology applied for kinetic evaluation is presented in the SI.
For the activity plots shown here, the ratios of reaction rates v ([I] = 0] and vapp ([I] = 0.2–14 mM) were determined from UV absorption measurements at 475 nm using the dopachrome assay. Each reaction setup contained a fixed amount of enzyme (1 µg abPPO4) in 1 mL in a plastic cuvette and the reaction buffer was 50 mM Na-citrate pH 6.8. POT stock solutions were prepared in 20 mM concentration in reaction buffer and adjusted for pH 6.8 with NaOH, if necessary. The reaction rates were extracted from the obtained absorption curves as the slope of linear fits of the steepest curve sections close to the start of the reaction over a time-range of 30 s and were determined in triplicates. The relative enzymatic activity dependent on the inhibitor concentration was fitted to a suitable hyperbolic expression (see SI for details). […] The dopachrome assay was performed exactly as described in section 3.1.1. This time, the observed reaction velocities vapp (in µmol/min) were calculated from the extracted reaction rates (in 1/s) using the extinction coefficient of dopachrome ε = 3700 M^−1 cm^−1 [62]. The so obtained data was plotted according to Lineweaver-Burk, and the slopes and ordinate intercepts of these graphs were used to extract inhibition parameters.
(The kinetic models with according mathematical expressions applied in this study are based on Copeland’s guide for enzyme kinetics[28].)
The classical Michaelis-Menten equation[28] relates the velocity v of an enzymatic reaction to the applied substrate concentration [S]:
In this equation, the Michaelis constant KM represents the substrate concentration effecting the half-maximum reaction rate vmax.
For the reported inhibition studies, we chose an expanded version of this equation (1) which accounts for all possible inhibition mechanisms and combinations thereof[28]. In general, both […]
ݒ௠௔௫,௔௣௣ = ௩೘ೌೣଵା [಺] (2)
Herein, [I] refers to the inhibitor concentration, Ki is the inhibition constant measuring the […]
The three ideal inhibition types are reflected by three limiting conditions for α:
(A) 0 < α <<1: uncompetitive inhibition
(B) α = 1: non-competitive inhibition
(C) α >> 1: competitive inhibition
Therefore, values of α < 1 often correspond to mixed-type inhibition with contributions from uncompetitive and non-competitive inhibition modes.
Insertion of expressions (2) and (3) in equation (1) leads to the final mixed-type inhibition […]
The relative enzymatic activity upon inhibition can be expressed as the ratio of the observed reaction velocity v app to the non - inhibited reaction performance v through dividing equation […]
This corresponds to a normalization of the reaction rates with respect to the non - inhibited rate. As w e were interested in the dependence of the reaction velocity on the inhibitor concentration , the substrate concentration was fixed to 1 mM L - DOPA for all activity plots.
This led to a further simplification of equation ( 1 ) : […]
Equation (6) was used as the final curve fit expression for kinetic evaluation of those POM […]
K M was set to 26.1 mM as reported for ab PPO4 by
3.2 Determination of inhibition type
3.2. 1 Kinetic evaluation using Lineweaver - Burk plots […]
linear Lineweaver - Burk [ 29 ] extrapolations. The double - reciprocal plots of 1/ v app against 1/[S] yielded straight li nes that were fitted accordingly to the corresponding ly rearranged form of […]
For simplicity, the terms for the slope m and the ordinate shift t are co mbine d in constants in […]

[2] = speciation / hydrolytic stability of POTs at pH 6.8 by 183W NMR; type: physicochemical; details: 183W NMR (and 31P, 27Al NMR), ca. 20 mM in 50 mM Na-citrate pH 6.8
Source text: ^183W NMR spectroscopy is the most widely applied and reliable technique for the structural characterization of POTs in solution as well as to monitor the progress of reaction. Hundreds of POM ^183W NMR spectra have been reported since the first ^183W NMR spectrum for [SiW11]^8− observed by Acerete et al. in[47]. The here-presented ^183W NMR analysis yielded a single signal for all intact [XW12]^n− structures (Figs 4A,D and S11–S14), reflecting the perfect tetrahedral symmetry of the Keggin α-isomer and clearly confirming the isomeric purity of the prepared POTs.
^183W NMR samples for all the POM compounds were prepared in high concentrations similar to the stock solutions used for kinetic experiments (usually about 20 mM) in 50 mM Na-citrate pH 6.8 if not stated otherwise. ^183W NMR spectra were recorded with a Bruker FT-NMR spectrometer Avance Neo 500 MHz in 10 mm tubes for a total experiment time of ca. 60 hours, using standard pulse programs at 20.836 MHz and a 63° flip angle with 1 s of relaxation delay; the temperature was kept at 25 °C. Chemical shifts were measured relative to external 1 M Na2WO4. For [PW12]^3−, [PW11]^7− and […], additional ^31P NMR spectra were taken, structures of [AlW12]^5−, [AlW11]^9− and [BeW12]^6− were confirmed by ^27Al NMR or ^9Be NMR spectroscopy, respectively. ^27Al, ^9Be and ^31P NMR spectra were recorded at 130.368, 70.273 and 202.53 MHz, respectively. Chemical shifts are given relative to Al(NO3)3, BeSO4 or 85% H3PO4.
In the ^183W NMR spectrum of [PW12]^3− at pH 6.8 (see Fig. 4E), the six most intense peaks can be assigned to six different symmetry-equivalent positions in [PW11]^7−[47],[49]. The less intense signals in the ^183W NMR spectrum can be attributed to other [PW12]^3− hydrolysis products[51] that have been identified in the ^31P NMR spectrum (Fig. S7B). […] Based on both spectra, it can be concluded that [PW11]^7− prevails in aqueous solution at pH 6.8. […] Assignment is complicated by the special pseudo-paramagnetic character of this cluster (see ^183W NMR analysis in Fig. S15, SI section 2.2.2.4).
In order to identify the tungstate species responsible for the inhibitory effect observed with the orthotungstate solution [WO4]^2−, ^183W NMR was performed in reaction buffer pH 6.8, which had to be readjusted by a few drops of 5 M HCl to compensate for the marked basicity of [WO4]^2−. […] The chemical shifts are in agreement with literature data[56]. […] The ^183W NMR spectra for the POT clusters with higher negative charges (see Figs S11–S14) show only one single signal, thereby confirming full structural integrity of the corresponding Keggin anions at pH 6.8. The lacunary cluster [AlW11]^9− evoked a rise in pH up to 8.5 upon dissolution in reaction buffer (pH 6.8) to reach a final concentration of 20 mM. […] In the [BeW12]^6− spectrum (Fig. S14), three additional signals at −147.6, −155.3 and −168.6 ppm can be seen, which were assigned to the β-Keggin isomer. The C3v symmetry of this isomer results in three shifts with intensity ratio 1:2:1, as previously observed for other β-isomers of Keggin structure. The β-isomer is commonly formed during any synthesis of Keggin clusters, but rearranged to the α-form during prolonged thermal reaction. Thus, the occurrence of the β-form in the present preparation can be ascribed to the reduced reaction time applied for the hydrothermal synthesis. […] The ^31P (cf. Fig. S8) and ^183W NMR (Fig. S15) spectra of [PW11Ni]^5− have a special character originating from the peculiar electronic configuration of Ni^2+ and were in general accordance with reference data[61]. In the presented ^183W NMR spectrum, signals from those W atoms in direct neighbourhood to the Ni^2+ center cannot be observed, which complicates unambiguous assignment to the desired substituted POT structure. However, the obtained results can be explained in the light of electronic effects. […]

[3] = expected from net charge; cited from earlier work
mushroom tyrosinase = details: substrate L-DOPA; cited from earlier work
[4] = test system: Bacillus megaterium tyrosinase; design: method as in PMID 27725765; details: substrate L-DOPA; cited from earlier work
[5] = [a] from activity plot, 1 mM L-DOPA, pH 6.8
[6] = [a] from activity plot, 1 mM L-DOPA, 50 mM Na-citrate pH 6.8, 0–14 mM POT
[7] = [a] from activity plot, 1 mM L-DOPA, 50 mM Na-citrate pH 6.8, 0–14 mM POT, read-out: Ki [mM], from activity plot
[8] = [b] from Lineweaver-Burk slopes, L-DOPA 0.4–[…], pH 6.8, read-out: Ki [mM], from Lineweaver-Burk slopes
[9] = [c] from Dixon plots, average intersection, L-DOPA 0.4–[…], pH 6.8, read-out: Ki [mM], from Dixon plots

| α, inhibition parameter, from activity plot [1, 5] | α, inhibition parameter, from Lineweaver-Burk intercepts ([1]; pH 6.8) | inhibitory effect on abPPO4 activity (in words) ([1]; 1 mM L-DOPA, pH 6.8) | Inhibition type ([1]; pH 6.8) | structural integrity / hydrolysis at pH 6.8 [2] | Ki [mM], from activity plot [1, 6] | Ki [1, 7] [mM] | Compound | other results |
| --- | --- | --- | --- | --- | --- | --- | --- | --- |
| 0.12 | 0.31 | weak inhibitory capacity | Mixed-type | not stable |  |  | Na9[AlW11O39] [[AlW11]^9−] |  |
| 0.11 | 0.32 | most potent inhibitory effect | Mixed-type | partial hydrolysis |  | 4.7 | K4[SiW12O40] [[SiW12]^4−] | Ki [1, 8]: 3.8 mM; Ki [1, 9]: 5.6 mM |
|  |  | no enzymatic inhibition | No inhibition |  | No inhibition |  | K8[SiW11O39] [[SiW11]^8−] | inhibitory effect on abPPO4 activity (in words) ([1]; 1 mM L-DOPA, pH 6.8, listed as Hx[SiW11O39]^(8−x)−): ineffective |
| 0.13 | 0.20 | markedly lower inhibition capacity | Mixed-type | full hydrolysis |  |  | Na3[PW12O40] [[PW12]^3−] |  |
|  |  | measurable inhibition effects |  |  |  |  | H[W7O24]^5− [heptatungstate] |  |
|  |  | weak inhibition effects |  |  |  | 54.1 | [AlW11O39{Al(H2O)}]^6− |  |
|  |  |  | No inhibition | retain full structural integrity | No inhibition |  | Na5[AlW12O40] [[AlW12]^5−] |  |
|  |  |  | No inhibition | retain full structural integrity | No inhibition |  | K5[BW12O40] [[BW12]^5−] |  |
|  |  |  | No inhibition | retain full structural integrity | No inhibition |  | Na6[H2W12O40] [[H2W12]^6−] |  |
| 0.12 | 0.20 | pronounced inhibition | Mixed-type |  |  | 9.7 | K5[PW11O39{Ni(H2O)}] [[PW11Ni]^5−] | Ki [1, 8]: 14.3 mM; Ki [1, 9]: 15 mM |
|  |  |  |  |  |  |  | O=c1cc(CO)occ1O [kojic acid] | inhibition mode (mushroom tyrosinase): competitive; inhibition mode [4]: mixed-type |

| Compound | α, inhibition parameter, from activity plot [1, 5] | α, inhibition parameter, from Lineweaver-Burk intercepts ([1]; pH 6.8) | inhibitory effect on abPPO4 activity (in words) ([1]; 1 mM L-DOPA, pH 6.8) | Inhibition type ([1]; pH 6.8) | structural integrity / hydrolysis at pH 6.8 [2] | Ki [mM], from activity plot [1, 6] | Ki [1, 7] [mM] | other results |
| --- | --- | --- | --- | --- | --- | --- | --- | --- |
| O=[N+]([O-])[O-].O=[N+]([O-])[O-].[Ni+2] [Ni^2+, Ni(NO3)2, reference compound] |  |  | no inhibition effect | No inhibition |  | No inhibition |  |  |
| Na6[BeW12O40] [[BeW12]^6−] |  |  |  | No inhibition | retain full structural integrity | No inhibition |  | stability in aqueous buffers up to pH [3]: ≤ 9 pH |
| K7[PW11O39] [[PW11]^7−] | 0.12 | 0.17 | inhibitory effect of intermediate capacity | Mixed-type |  |  | 12 | Ki [1, 8]: 9.9 mM; Ki [1, 9]: 9.9 mM |
| [Na+].[Na+].[O]=[W](=[O])([O-])[O-] [[WO4]^2−, Na2WO4, reference compound] | 0.14 | 0.03 |  | Mixed-type | no detectable residual free orthotungstate |  | 20 | Ki [1, 8]: 19 mM; Ki [1, 9]: 24.8 mM |
